Experiments:
[1] = molecular target: Inhibitor of nuclear factor kappa-B kinase subunit alpha (Homo sapiens) (UniProt O15111); assay: Inhibition of CHUK at 25 uM by TR-FRET assay
[2] = molecular target: Mitogen-activated protein kinase 14 (Homo sapiens) (UniProt Q16539); assay: Inhibition of MAPK14 at 25 uM by TR-FRET assay
[3] = molecular target: RAC-alpha serine/threonine-protein kinase (Homo sapiens) (UniProt P31749); assay: Inhibition of AKT1 at 25 uM by TR-FRET assay
[4] = molecular target: T1, Mitogen-activated protein kinase 9 (Homo sapiens, UniProt P45984); assay: Binding affinity to JNK2
[5] = molecular target: Phosphatidylinositol 4,5-bisphosphate 3-kinase catalytic subunit alpha isoform (Homo sapiens) (UniProt P42336); assay: Inhibition of PI3Kalpha at 25 uM by TR-FRET assay
[6] = molecular target: Serine/threonine-protein kinase Nek1 (Homo sapiens) (UniProt Q96PY6); assay: Inhibition of NEK1 at 25 uM by TR-FRET assay
[7] = molecular target: Mitogen-activated protein kinase 10 (Homo sapiens) (UniProt P53779); assay: Inhibition of JNK3 at 25 uM by TR-FRET assay
[8] = molecular target: Mitogen-activated protein kinase 1 (Homo sapiens) (UniProt P28482); assay: Inhibition of MAPK1 at 25 uM by TR-FRET assay
[9] = molecular target: Serine/threonine-protein kinase B-raf (Homo sapiens) (UniProt P15056); assay: Inhibition of BRAF at 25 uM by TR-FRET assay
[10] = molecular target: Mitogen-activated protein kinase kinase kinase kinase 2 (Homo sapiens) (UniProt Q12851); assay: Inhibition of MAP4K2 at 25 uM by TR-FRET assay
[11] = molecular target: Serine/threonine-protein kinase mTOR (Homo sapiens) (UniProt P42345); assay: Inhibition of FRAP1 at 25 uM by TR-FRET assay
Plasma = assay: Metabolic stability in rat plasma after 60 mins by LC/MS analysis; assay type: ADME, cell-free; settings: 1 h
[12] = molecular target: Cyclin-dependent kinase 1 (Homo sapiens) (UniProt P06493); assay: Inhibition of CDK1 at 25 uM by TR-FRET assay
[13] = molecular target: Sphingosine kinase 1 (Homo sapiens) (UniProt Q9NYA1); assay: Inhibition of SPHK1 at 25 uM by TR-FRET assay
[14] = molecular target: T2, Mitogen-activated protein kinase 8 (Homo sapiens, UniProt P45983); settings: 25 uM
Description: Inhibition of JNK1 at 25 uM by TR-FRET assay

[15] = molecular target: T2, Mitogen-activated protein kinase 8; assay: Displacement of biotin-labeled JIP1 peptide from JNK1 by DELFIA assay
[16] = molecular target: Serine/threonine-protein kinase pim-1 (Homo sapiens) (UniProt P11309); assay: Inhibition of PIM1 at 25 uM by TR-FRET assay
[17] = molecular target: Serine/threonine-protein kinase Chk1 (Homo sapiens) (UniProt O14757); assay: Inhibition of CHEK1 at 25 uM by TR-FRET assay
[18] = molecular target: 5'-AMP-activated protein kinase catalytic subunit alpha-1 (Homo sapiens) (UniProt Q13131); assay: Inhibition of AMPK A1 at 25 uM by TR-FRET assay
[19] = molecular target: Rho-associated protein kinase 1 (Homo sapiens) (UniProt Q13464); assay: Inhibition of ROCK1 at 25 uM by TR-FRET assay
[20] = molecular target: T2, Mitogen-activated protein kinase 8; assay: Inhibition of JNK1 by TR-FRET assay
[21] = molecular target: Calcium/calmodulin-dependent protein kinase type 1 (Homo sapiens) (UniProt Q14012); assay: Inhibition of CAMK1 at 25 uM by TR-FRET assay
[22] = molecular target: T1, Mitogen-activated protein kinase 9; assay: Inhibition of JNK2 at 25 uM by TR-FRET assay
[23] = molecular target: Aurora kinase A (Homo sapiens) (UniProt O14965); assay: Inhibition of AURK A at 25 uM by TR-FRET assay
[24] = molecular target: Mitogen-activated protein kinase kinase kinase 9 (Homo sapiens) (UniProt P80192); assay: Inhibition of MAPK3K9 at 25 uM by TR-FRET assay
[25] = molecular target: Dual specificity mitogen-activated protein kinase kinase 1 (Homo sapiens) (UniProt Q02750); assay: Inhibition of MAK2K1 at 25 uM by TR-FRET assay
[26] = molecular target: Mitogen-activated protein kinase 3 (Homo sapiens) (UniProt P27361); assay: Inhibition of MAPK3 at 25 uM by TR-FRET assay
[27] = molecular target: Mitogen-activated protein kinase 14 (Homo sapiens) (UniProt Q16539); assay: Inhibition of MAPK14 at 25 uM by direct TR-FRET assay
[28] = molecular target: 3-phosphoinositide-dependent protein kinase 1 (Homo sapiens) (UniProt O15530); assay: Inhibition of PDK1 at 25 uM by direct TR-FRET assay
[29] = molecular target: Protein kinase C alpha type (Homo sapiens) (UniProt P17252); assay: Inhibition of PRKCA at 25 uM by TR-FRET assay
[30] = molecular target: Glycogen synthase kinase-3 alpha (Homo sapiens) (UniProt P49840); assay: Inhibition of GSK3alpha at 25 uM by TR-FRET assay

T2 sequence (P45983 whole entry): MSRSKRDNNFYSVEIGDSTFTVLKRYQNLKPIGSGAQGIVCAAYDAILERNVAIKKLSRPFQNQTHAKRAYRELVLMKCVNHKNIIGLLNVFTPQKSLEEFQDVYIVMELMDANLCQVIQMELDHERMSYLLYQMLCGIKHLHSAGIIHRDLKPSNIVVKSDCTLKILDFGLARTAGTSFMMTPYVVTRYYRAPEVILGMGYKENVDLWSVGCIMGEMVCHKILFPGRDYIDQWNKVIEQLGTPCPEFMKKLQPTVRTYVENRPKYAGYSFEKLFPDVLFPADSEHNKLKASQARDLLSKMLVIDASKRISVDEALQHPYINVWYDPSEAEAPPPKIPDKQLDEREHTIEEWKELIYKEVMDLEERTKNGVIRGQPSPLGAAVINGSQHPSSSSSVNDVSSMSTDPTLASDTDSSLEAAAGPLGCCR
Sequence of Mitogen-activated protein kinase 14 (Homo sapiens) (Q16539 whole entry): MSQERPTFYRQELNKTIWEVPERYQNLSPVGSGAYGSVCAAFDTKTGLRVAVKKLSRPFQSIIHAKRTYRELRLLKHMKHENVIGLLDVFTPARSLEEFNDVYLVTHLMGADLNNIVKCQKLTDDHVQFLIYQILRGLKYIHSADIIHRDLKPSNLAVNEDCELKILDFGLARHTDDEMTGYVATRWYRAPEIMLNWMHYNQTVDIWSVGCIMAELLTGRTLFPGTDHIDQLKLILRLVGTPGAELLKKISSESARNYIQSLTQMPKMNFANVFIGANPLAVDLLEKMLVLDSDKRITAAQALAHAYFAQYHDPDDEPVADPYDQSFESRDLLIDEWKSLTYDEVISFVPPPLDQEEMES
Sequence of 3-phosphoinositide-dependent protein kinase 1 (Homo sapiens) (O15530 whole entry): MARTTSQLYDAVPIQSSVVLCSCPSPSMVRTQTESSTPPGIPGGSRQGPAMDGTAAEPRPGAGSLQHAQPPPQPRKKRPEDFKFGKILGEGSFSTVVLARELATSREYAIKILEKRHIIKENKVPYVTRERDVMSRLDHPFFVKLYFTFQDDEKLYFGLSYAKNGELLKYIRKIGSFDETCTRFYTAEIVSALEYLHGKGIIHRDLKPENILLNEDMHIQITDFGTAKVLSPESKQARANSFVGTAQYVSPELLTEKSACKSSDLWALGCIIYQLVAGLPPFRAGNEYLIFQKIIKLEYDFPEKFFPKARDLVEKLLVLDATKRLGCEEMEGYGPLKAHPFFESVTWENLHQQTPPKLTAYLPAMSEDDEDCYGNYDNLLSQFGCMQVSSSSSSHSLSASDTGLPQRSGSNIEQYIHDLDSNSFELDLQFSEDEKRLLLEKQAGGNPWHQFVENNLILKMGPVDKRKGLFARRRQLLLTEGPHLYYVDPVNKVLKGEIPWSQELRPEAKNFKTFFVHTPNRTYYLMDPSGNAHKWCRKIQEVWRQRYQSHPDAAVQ
Sequence of Serine/threonine-protein kinase Chk1 (Homo sapiens) (O14757 whole entry): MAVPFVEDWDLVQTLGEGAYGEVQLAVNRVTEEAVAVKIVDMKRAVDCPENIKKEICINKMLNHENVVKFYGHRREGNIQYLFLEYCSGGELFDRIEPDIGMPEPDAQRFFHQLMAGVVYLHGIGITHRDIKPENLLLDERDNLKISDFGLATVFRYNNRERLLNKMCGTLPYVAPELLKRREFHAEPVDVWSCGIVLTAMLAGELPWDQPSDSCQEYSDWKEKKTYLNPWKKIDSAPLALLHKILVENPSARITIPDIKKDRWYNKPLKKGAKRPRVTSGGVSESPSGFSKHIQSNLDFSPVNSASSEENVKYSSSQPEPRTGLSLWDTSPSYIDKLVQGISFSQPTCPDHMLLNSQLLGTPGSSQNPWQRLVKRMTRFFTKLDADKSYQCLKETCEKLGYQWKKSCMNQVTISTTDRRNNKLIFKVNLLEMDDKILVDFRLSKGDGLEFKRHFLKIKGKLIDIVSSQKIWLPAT
Sequence of Serine/threonine-protein kinase B-raf (Homo sapiens) (P15056 whole entry): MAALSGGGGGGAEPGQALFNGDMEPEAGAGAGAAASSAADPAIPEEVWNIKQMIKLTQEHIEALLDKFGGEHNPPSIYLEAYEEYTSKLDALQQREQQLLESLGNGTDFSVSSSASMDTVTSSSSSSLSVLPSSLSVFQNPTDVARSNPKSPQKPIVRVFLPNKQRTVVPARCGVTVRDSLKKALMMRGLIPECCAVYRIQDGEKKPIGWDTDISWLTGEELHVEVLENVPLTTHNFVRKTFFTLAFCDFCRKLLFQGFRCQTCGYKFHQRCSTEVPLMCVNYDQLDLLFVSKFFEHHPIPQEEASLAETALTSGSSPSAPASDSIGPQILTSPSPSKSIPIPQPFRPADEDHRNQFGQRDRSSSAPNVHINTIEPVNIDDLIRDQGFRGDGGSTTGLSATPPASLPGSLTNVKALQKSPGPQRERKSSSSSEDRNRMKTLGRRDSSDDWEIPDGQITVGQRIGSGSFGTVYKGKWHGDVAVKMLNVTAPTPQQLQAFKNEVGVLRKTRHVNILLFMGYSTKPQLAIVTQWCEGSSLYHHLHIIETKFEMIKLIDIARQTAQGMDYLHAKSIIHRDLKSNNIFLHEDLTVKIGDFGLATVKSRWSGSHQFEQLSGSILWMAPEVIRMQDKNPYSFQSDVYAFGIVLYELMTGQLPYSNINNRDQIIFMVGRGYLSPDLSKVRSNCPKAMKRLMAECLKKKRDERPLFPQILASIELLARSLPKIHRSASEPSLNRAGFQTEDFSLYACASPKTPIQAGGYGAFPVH
Sequence of RAC-alpha serine/threonine-protein kinase (Homo sapiens) (P31749 whole entry): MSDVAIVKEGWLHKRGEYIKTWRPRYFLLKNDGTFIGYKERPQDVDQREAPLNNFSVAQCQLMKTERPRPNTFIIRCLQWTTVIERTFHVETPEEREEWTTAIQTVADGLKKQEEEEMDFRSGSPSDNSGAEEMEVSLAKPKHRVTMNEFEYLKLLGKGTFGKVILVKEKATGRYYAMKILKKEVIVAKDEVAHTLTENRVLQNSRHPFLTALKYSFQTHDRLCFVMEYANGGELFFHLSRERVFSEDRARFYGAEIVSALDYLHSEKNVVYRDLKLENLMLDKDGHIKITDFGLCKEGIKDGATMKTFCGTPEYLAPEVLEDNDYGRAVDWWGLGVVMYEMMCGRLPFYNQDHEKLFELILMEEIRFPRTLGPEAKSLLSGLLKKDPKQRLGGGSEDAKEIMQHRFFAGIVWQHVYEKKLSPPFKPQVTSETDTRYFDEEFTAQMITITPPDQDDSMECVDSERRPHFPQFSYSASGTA
Sequence of Rho-associated protein kinase 1 (Homo sapiens) (Q13464 2-1354 limits assumed): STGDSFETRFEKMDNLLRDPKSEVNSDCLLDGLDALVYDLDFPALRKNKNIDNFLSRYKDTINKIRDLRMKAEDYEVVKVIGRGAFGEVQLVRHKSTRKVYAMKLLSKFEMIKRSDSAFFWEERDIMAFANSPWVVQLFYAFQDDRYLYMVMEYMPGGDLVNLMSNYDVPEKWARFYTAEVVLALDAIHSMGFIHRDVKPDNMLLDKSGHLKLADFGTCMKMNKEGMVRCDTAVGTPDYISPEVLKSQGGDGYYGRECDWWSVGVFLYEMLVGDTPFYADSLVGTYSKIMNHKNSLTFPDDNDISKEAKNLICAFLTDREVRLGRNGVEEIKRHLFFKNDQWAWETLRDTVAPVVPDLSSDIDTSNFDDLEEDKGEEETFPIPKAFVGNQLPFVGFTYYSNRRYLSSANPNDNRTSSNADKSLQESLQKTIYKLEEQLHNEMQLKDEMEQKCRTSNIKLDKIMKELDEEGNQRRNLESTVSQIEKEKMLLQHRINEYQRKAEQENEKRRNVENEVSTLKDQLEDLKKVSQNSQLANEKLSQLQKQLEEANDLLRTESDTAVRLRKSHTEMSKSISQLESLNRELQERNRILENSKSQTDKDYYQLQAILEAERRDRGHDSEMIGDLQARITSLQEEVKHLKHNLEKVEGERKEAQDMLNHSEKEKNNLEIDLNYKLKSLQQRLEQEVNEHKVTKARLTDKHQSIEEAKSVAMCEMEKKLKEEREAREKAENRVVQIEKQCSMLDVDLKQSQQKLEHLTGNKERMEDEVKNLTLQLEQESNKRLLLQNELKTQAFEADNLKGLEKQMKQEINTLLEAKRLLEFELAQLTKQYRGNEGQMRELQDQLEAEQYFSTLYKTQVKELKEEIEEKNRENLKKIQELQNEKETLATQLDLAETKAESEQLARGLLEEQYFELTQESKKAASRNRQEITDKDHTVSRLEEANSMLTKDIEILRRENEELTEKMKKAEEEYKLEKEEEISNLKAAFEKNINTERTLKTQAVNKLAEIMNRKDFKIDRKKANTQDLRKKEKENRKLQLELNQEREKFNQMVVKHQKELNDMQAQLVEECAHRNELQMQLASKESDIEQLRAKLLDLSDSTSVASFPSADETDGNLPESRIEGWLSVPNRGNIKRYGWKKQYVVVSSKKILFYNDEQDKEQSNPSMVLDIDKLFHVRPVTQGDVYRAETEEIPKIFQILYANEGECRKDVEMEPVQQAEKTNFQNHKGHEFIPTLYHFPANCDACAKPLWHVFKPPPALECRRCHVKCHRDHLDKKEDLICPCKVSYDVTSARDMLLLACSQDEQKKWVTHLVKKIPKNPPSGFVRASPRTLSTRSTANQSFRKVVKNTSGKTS
Sequence of Aurora kinase A (Homo sapiens) (O14965 whole entry): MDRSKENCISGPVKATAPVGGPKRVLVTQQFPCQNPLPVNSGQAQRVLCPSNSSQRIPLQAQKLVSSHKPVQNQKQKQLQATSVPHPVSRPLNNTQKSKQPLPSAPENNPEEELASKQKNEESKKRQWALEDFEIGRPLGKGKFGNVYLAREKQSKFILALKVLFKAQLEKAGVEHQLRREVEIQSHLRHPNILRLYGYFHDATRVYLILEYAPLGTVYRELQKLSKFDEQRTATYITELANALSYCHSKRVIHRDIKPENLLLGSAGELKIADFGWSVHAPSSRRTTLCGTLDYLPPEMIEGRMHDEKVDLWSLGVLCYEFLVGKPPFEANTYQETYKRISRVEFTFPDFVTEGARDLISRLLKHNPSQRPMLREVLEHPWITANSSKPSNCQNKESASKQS

## NC(=O)c1ccsc1NC(=O)Cc1csc2ccccc12
[1]
  inhibition: 0%
[2]
  inhibition: 11%
[3]
  inhibition: 5%
[4]
  Kd: 640 nM
[5]
  inhibition: 4%
[6]
  inhibition: 0%
[7]
  inhibition: 18%
[8]
  inhibition: 4%
[9]
  inhibition: 2%
[10]
  inhibition: 1%
[11]
  inhibition: 0%
Plasma
  Stability: Stable
[12]
  inhibition: 3%
[13]
  inhibition: 1%
[14]
  inhibition: 79%
[15]
  IC50: 4620 nM
[16]
  inhibition: 0%
[17]
  inhibition: 0%
[18]
  inhibition: 0%
[19]
  inhibition: 0%
[20]
  IC50: 1300 nM
[21]
  inhibition: 2%
[22]
  inhibition: 72%
[23]
  inhibition: 0%
[24]
  inhibition: 0%
[25]
  inhibition: 0%
[26]
  inhibition: 3%
[27]
  inhibition: 2%
[28]
  inhibition: 0%
[29]
  inhibition: 0%
[30]
  inhibition: 16%
